# Measurements from patent US4374149A, “α-{[(Arylalkyl)amino]alkyl}-4-hydroxy-3-(lower-alkylsul finyl)benzenemethanols” (Sterling Drug Inc., priority 1978, dated 1983).
# Where “and” joins values, the source holds several entries; their conditions need not be identical. Identical values can stand only once. Counter-ions that a name gives are not always drawn.
# Legend:
# [1] = tested on: β-adrenergic; experiment: β-adrenergic blocking activity, inhibition of isoproterenol-elicited heart rate increase in pentobarbitalized dog; format: in vivo; conditions: i.v., pentobarbitalized dog
# [2] = tested on: hind limb vasculature; experiment: Vasodilator activity, perfusion pressure in hind limb vasculature of anesthetized dog; format: in vivo
# Source text: Vasodilator activity was judged on the basis of observed reduction in perfusion pressure in the hind limb vasculature of the anesthetized dog determined according to the procedure described by Jandhyala et al., European J. Pharm. 17, 357 (1972), and also on the basis of percent reduction in perfusion pressure as measured in the isolated rabbit ear artery according to the method described by De LaLande et al., Aust. J. Exp. Biol. Med. Sci. 43, 639 (1965).
# ^c AED50 = approximate intraarterial dose required to cause a 50
# [3] = tested on: systolic blood pressure; experiment: Antihypertensive activity, reduction in systolic blood pressure, single oral medication, unanesthetized spontaneous hypertensive rat; format: in vivo; conditions: P.O., single dose, unanesthetized SH rat
# [4] = tested on: blood pressure; experiment: Antihypertensive activity, sustained lowering of blood pressure, repeated oral medication, unanesthetized trained renal hypertensive dog; format: in vivo; conditions: tid.
# [5] = tested on: isolated rabbit ear artery; experiment: Vasodilator activity, perfusion pressure in isolated rabbit ear artery
# Method in brief: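 Percent reduction in perfusion pressure of the isolated rabbit ear artery (De LaLande method) as the vasodilation read-out; vasodilator activity also judged from reduced hind-limb perfusion pressure in the anesthetized dog.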
# [6] = tested on: histamine-induced bronchoconstriction; experiment: β-adrenergic stimulant activity, block of histamine-induced bronchoconstriction in the dog; format: in vivo
# [7] = tested on: isolated cat atria; experiment: Cardiotonic test procedure I, isolated cat atria; conditions: for Increase in right atrial force / Increase in right atrial rate: in vitro
# Experimental: The efficacy of this compound was judged, in vitro, on the basis of percent increase in contractile force in isolated cat atria and papillary muscle and, in vitro, on the basis of percent increase in cardiac contractile force in the intact anesthetized dog. Male cats weighing from 0.8 to 1.5 kg. were anesthetized with α-chloralose (80 mg./kg. i.p.). The chest was opened, the heart excised and the two atria dissected. A silk suture was tied to each of two opposite sides of the right atrium. One side of the atrium was tied to a glass rod and then mounted in a 50 ml. organ bath filled with Tyrode's solution. […] The transducer was then connected to a Grass polygraph and the force and rate of atrial contraction was recorded continuously. The left atrium was treated similarly using silver wire instead of silk sutures. The silver wire also served as a stimulating electrode. Both atria were mounted in the same bath. The right atrium was beating spontaneously due to the presence of the sinoatrial node, while the left atrium was stimulated electrically at a rate of 3 beats/sec. by suprathreshold rectangular pulses of 5 millisecond duration. The Tyrode's solution bathing the atria was of the following composition (in mM): NaCl 136.87, KCl 5.36, NaH2 PO4 0.41, CaCl2 1.80, MgCl2 6H2 O 1.05, NaHCO3 11.90, glucose 5.55 and EDTA 0.04. […] The preparation was left to equilibrate for one hour before any drug was added. The bathing fluid was changed 3 to 4 times during the equilibration time. At the end of equilibration period, the drug dissolved in a vehicle or the vehicle alone was added to the tissue bath and the full response recorded. The vehicle used was Tyrode' s solution to which, if required, sufficient acid was added to cause solution of the drug. […] Generally, a dose response study of at least 3 doses was done in the same preparation.
# [8] = tested on: papillary muscle; experiment: Cardiotonic test procedure IB, isolated cat papillary muscle; conditions: in vitro
# Experimental: The efficacy of this compound was judged, in vitro, on the basis of percent increase in contractile force in isolated cat atria and papillary muscle and, in vitro, on the basis of percent increase in cardiac contractile force in the intact anesthetized dog. Male cats 0.8 to 1.5 kg. were anethetized with α-chloralose (80 mg./kg. i.p.). The chest was opened and the heart excised. The heart was dipped and shaken in Tyrode's solution for the removal of blood from the cavities. The right ventricle was then slit open and the small and thin (about 1 mm. in diameter and 4 to 7 mm. in length) papillary muscles were dissected out. A silver wire was attached to each of the two ends of the papillary muscle. The ventricular end was attached to a platinum electrode and mounted in a tissue bath containing Tyrode's solution described above. The silver wire on the valvular end of the muscle was attached to a force displacement transducer for the measurement of the force and rate of muscle contraction. The muscle was stimulated at a rate of 3 beats/sec. by suprathreshold rectangular pulses of 5 millisecond duration. The rest of the procedure was continued as described above.
# [9] = tested on: Ba++-induced arrhythmia; experiment: Conversion of Ba++-induced arrhythmia in rabbits; format: in vivo; design: key: active (A); inactive (I); conditions: 1 × 10^-5 M/kg.
# Experimental: (§1) The test procedures were carried out as follows.
# Adult rabbits or either sex weighing between 1.7 and 2.3 kg. were anesthetized with 30 to 35 mg./kg. Na-pentobarbital i.v. via a marginal ear vein. Monoplar ECG pin electrodes were inserted for a lead II display on a Model 5 Grass Polygraph using standard electrocardiographic procedures. A 23 ga. hypodermic needle, attached via a polyethylene catheter to a 10 cc. syringe, was inserted into the same vein as was used for anesthesia. A BaCl2.2H2 O solution in saline was then infused at a constant volume of 0.2 cc/min. from a Harvard Apparatus Model 600 infusion pump. This infusion was not stopped until termination of the experiment. In some studies barium chloride in distilled water was used without detectable differences. The standard rate of BaCl2.2H2 O infusion was established at 0.3 mg./kg./min. (1.2×10^-6 M/kg./min.), and the concentration was adjusted appropriately in each case to accommodate the weight of the rabbit.
# When the desired arrhythmia was established, the test compound was introduced as a water or saline solution into the marginal ear vein of the unused ear. The volume used was between 0.5 and 2.0 cc./kg. and was injected as a bolus over approximately 30 seconds. Deviations from standard vehicle, rate of injection and total volume administered were at the discretion of the operator. The standard initial dose of an unknown compound on the first rabbit was 5×10^-5 M/kg. In general, two to three rabbits were used to determine anti-arrhythmic activity and the dose range of activity; multiple doses were administered. Once activity and dose was indicated, two additional rabbits were employed to confirm anti-arrhythmic activity against a multifocal tachycardia.
# [10] = tested on: cardiac contractile force; experiment: Cardiotonic test procedure II, intact anesthetized dog; format: in vivo, mongrel dogs; conditions: i.v. infusion 10 mcg./kg./min. over 3 hrs.
# Experimental: The efficacy of this compound was judged, in vitro, on the basis of percent increase in contractile force in isolated cat atria and papillary muscle and, in vitro, on the basis of percent increase in cardiac contractile force in the intact anesthetized dog. The in vivo test procedure used is described as follows: Mongrel dogs of both sexes and varying in weight from 9 to 15 kg. were anesthetized with 30 mg./kg. pentobarbital sodium administered intravenously. The trachea was exposed and cannulated. The tracheal cannula was then attached to a Harvard respiratory pump using room air. The right femoral artery and vein were cannulated. […] The venous cannula was used for the intravenous administration of drugs. Pin electrodes were attached to the right forelimb and left hindlimb. The electrodes were then connected to a Grass polygraph for the continuous recording of the standard limb lead II electrocardiogram. A ventro-dorsal incision at the third inter-costal space was made, the ribs laterally retracted and the pericardium slit open to expose the myocardium. The base of the aorta was dissected and a flow probe was fitted around it. The flow probe was attached to a square wave electromagnetic flowmeter (Carolina Medical Electronics). The flowmeter was then connected to a Grass polygraph for the continuous recording of aortic blood flow. This flow was used as an index of cardiac output (actual cardiac output is aortic blood flow+coronary blood flow). Cardiac contractile force was measured by suturing a Walton-Brodie strain gauge to the wall of the right ventricle. At the end of the surgical procedure, the animal was left to rest and equilibrate for one hour with continuous recording of blood pressure, EKG, cardiac contractile force and aortic blood flow. After the equilibration period, the vehicle or the drug dissolved in the vehicle was administered by intravenous infusion (i.v. inf.), intravenous bolus (i.v. bol.) or intraduodenally (i.d.) and the response of all the parameters measured to drug administration was recorded continuously for different periods of times depending on the route of drug administration. When the route of administration was i.v. inf., the drug was administered until a peak effect was reached and infusion was then maintained for ten minutes. The above-described test systems were standardized using dopamine.
# [11] = tested on: Ouabain-induced arrhythmia; experiment: Conversion of ouabain-induced arrhythmia in dogs; format: in vivo, mongrel dogs; design: key: active (A); inactive (I); conditions: 5 × 10^-6 M/kg.
# Experimental: as §1
# Na-pentobarbital supplements were given i.v. as needed.
# Both parameters were printed out on a Grass polygraph.
# [12] = Local anesthetic activity (method of Bulbring and Wadja); format: in vivo; conditions: compared with procaine
# Experimental: D. Following a procedure similar to that described in Example 2G but using 2.5 g. (0.0049 mole) of dextrorotatory 4-hydroxy-α-<{[3-(4-methoxyphenyl)-1-methylpropyl]amino}methyl>- 3-(methylthio)benzenemethanol acetate salt (m.p. 124°-126° C., [α]D^25 =+7.7°) and 375 mg. of commercial 40% peracetic acid there was obtained 2.0 g. of 4-hydroxy-α-<{[3-(4-methoxyphenyl)-1-methylpropyl]amino}methyl>-3-(methylsulfinyl)benzenemethanol acetate salt as an amorphous yellow powder [α]D^25 =+4.2° containing a mixture of 4 diastereomeric sulfoxides. […] Exp. Therap. 85, 78 (1945).
# [13] = 7-day oral LD50 in rats; format: in vivo
compound,measurement,setting,value
"COc1ccc(CC(C)NCC(O)c2ccc(O)c([S+](C)[O-])c2)cc1 (stereo not drawn) [Example 1I, 4-hydroxy-α-<{[2-(4-methoxyphenyl)-1-methylethyl]amino}methyl>-3-(methylsulfinyl)benzenemethanol hydrochloride]",Dog β-blockade AED50 (approximate intravenous dose for 50% inhibition of isoproterenol-elicited heart rate increase),[1],0.04 mg/kg
same,ED50,"[2]; Canis lupus familiaris, read-out: Vasodilator activity Dog-Leg Perfusion AED50 (approximate intraarterial dose for 50 reduction in perfusion pressure)",0.25 mg/kg
same,Antihypertensive activity SH Rat AHD40 (single oral dose required to induce a 40 mm. average reduction in systolic blood pressure),[3],2.0 mg/kg
same,Renal Hypertensive Dog MED10 (minimum repeated oral daily dose for sustained lowering of blood pressure of 10% or greater),[4],1.25 mg/kg
same,Rabbit Ear Artery vasodilation (percentage reduction in perfusion pressure from control level),"[5]; 6.25 × 10^-5 M, 62.5 µM",53%
same,β-adrenergic stimulant activity,[6],ability to block histamine-induced bronchoconstriction in the dog
"COc1ccc(CCC(C)NCC(O)c2ccc(O)c([S+](C)[O-])c2)cc1 (stereo not drawn) [Example 5H, 4-hydroxy-α-<{[3-(4-methoxyphenyl)-1-methylpropyl]amino}methyl>-3-(methylsulfinyl)benzenemethanol hydrochloride]",Increase in right atrial force,[7]; 1 mg./ml.,52%
same,Increase in right atrial rate,[7]; 1 mg./ml.,62%
same,Increase in right atrial force,[7]; 10 mcg./ml.,46%
same,Increase in right atrial rate,[7]; 10 mcg./ml.,53%
same,Cardiotonic activity (in words),[7]; one or more of the cardiotonic test procedures,useful cardiotonic activity
same,Rabbit Ear Artery vasodilation (percentage reduction in perfusion pressure from control level),"[5]; 1 × 10^-4 M, 100 µM, hydrochloride",64%
same,Decrease in papillary muscle force,[8]; 1 mg./ml.,14%
same,Decrease in papillary muscle force,[8]; 10 mcg./ml.,12%
same,Conversion of Ba++-induced Arrhythmia,[9],A
same,Change in heart rate,[10]; 2 of 3 dogs,no significant change in heart rate
same,Maximum increase in cardiac contractile force,"[10]; 2 of 3 dogs, I, hydrochloride",25% and 42%
same,Decrease in contractile force,[10]; remaining dog,30%
same,Decrease in heart rate,[10]; remaining dog,33%
same,Conversion of Ouabain-induced Arrhythmia,[11],A
"COc1ccc(CCC(C)NCC(O)c2ccc(O)c([S+](C)[O-])c2)cc1 (stereo not drawn) [Example 5D, 4-hydroxy-α-<{[3-(4-methoxyphenyl)-1-methylpropyl]amino}methyl>-3-(methylsulfinyl)benzenemethanol acetate salt]",Local anesthetic activity,[12],equi-active with procaine as a local anesthetic
same,Dog β-blockade AED50 (approximate intravenous dose for 50% inhibition of isoproterenol-elicited heart rate increase),[1]; acetate salt,0.125 mg/kg
same,Vasodilator activity Dog-Leg Perfusion AED50 (approximate intraarterial dose for 50 reduction in perfusion pressure),"[2]; intraarterial, anesthetized dog hind limb, acetate salt",0.5 mg/kg
same,Antihypertensive activity SH Rat AHD40 (single oral dose required to induce a 40 mm. average reduction in systolic blood pressure),[3]; acetate salt,3.0 mg/kg
same,Renal Hypertensive Dog MED10 (minimum repeated oral daily dose for sustained lowering of blood pressure of 10% or greater),[4],0.0316 mg/kg
same,Rabbit Ear Artery vasodilation (percentage reduction in perfusion pressure from control level),"[5]; 5 × 10^-5 M, 50 µM, acetate salt",49%
"COc1ccc(CCC(C)NCC(O)c2ccc(O)c([S+](C)[O-])c2)cc1 (stereo not drawn) [Example 5E, 4-hydroxy-α-<{[3-(4-methoxyphenyl)-1-methylpropyl]amino}methyl>-3-(methylsulfinyl)benzenemethanol acetate salt]",Body weight and gross tissue changes,[13]; animals sacrificed 7 days post-medication,No changes in body weight and no gross tissue changes
same,7-day oral LD50,"[13]; oral, rats, two separate batches, acetate salt, 10080 min",1940 mg/kg
same,LD50 at 168 h,"[13]; rat, in vivo, po, rats, two separate batches",1850 mg/kg
